The text below walks through data of patent US20240025919A1, “AZA-TETRACYCLIC OXAZEPINE COMPOUNDS AND USES THEREOF” (Genentech, Inc., priority 2022, published 2024).

For orientation: IC50 means the concentration that gives 50% inhibition.

One assay deals with KRAS G12D (Homo sapiens (Human), UniProt P01116, G12D). The assay can be described thus: KRAS G12D LoEnz Biochemical Assay, BODIPY-GDP Exchange TR-FRET (SOS1-mediated nucleotide exchange). Particulars: read-out: KRas (G12D) GDP HTRF IC50.
Sequence of KRAS G12D (P01116-2 other isoform, or with tags, fused parts or gaps G12D): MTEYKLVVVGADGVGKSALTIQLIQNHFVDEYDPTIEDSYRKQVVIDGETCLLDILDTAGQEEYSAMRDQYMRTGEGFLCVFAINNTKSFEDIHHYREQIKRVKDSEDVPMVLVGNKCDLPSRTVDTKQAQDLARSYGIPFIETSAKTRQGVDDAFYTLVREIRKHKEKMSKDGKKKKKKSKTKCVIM
The target in another assay is KRAS WT (Homo sapiens (Human), UniProt P01116). The assay can be described thus: KRAS WT Biochemical Assay, BODIPY-GDP Exchange TR-FRET (Example 502; 0.06 nM KRAS WT, 15 nM GDP, 300 nM SOS1, 120-minute incubation). Particulars: read-out: KRas HTRF IC50. On the procedure:
Example 502: KRAS WT Biochemical Assay, BODIPY-GDP Exchange TR-FRET. Biochemical compound potencies are assessed by evaluating inhibition of SOS1-mediated nucleotide exchange in KRAS WT. In this assay, the SOS1-promoted exchange of fluorescently-labeled GDP (BOPIDY-GDP) is monitored by time-resolved fluorescence resonance energy transfer (TR-FRET). Compounds solubilized in DMSO are dispensed as concentration series into 384-well white assay plates. A preformed complex of 0.06 nM biotin-tagged recombinant human KRAS WT, 15 nM GDP and 0.06 nM terbium-labeled streptavidin (CisBIO) prepared in 10 uL/well assay buffer (20 mM HEPES, pH 7.5, 50 mM NaCl, 10 mM MgCl2, 0.01% Tween-20 and 1 mM dithiothreitol) is added and allowed to incubate for 10-minutes at room temperature. The reaction is initiated with the addition of 5 uL 300 nM recombinant human SOS1 and 300 nM BODIPY-GDP in assay buffer. After a 120-minute incubation, the fluorescence is measured with excitation at 337 nm and emission at 490 and 520 nm. The TR-FRET ratio is determined as the fluorescence at 520 nm divided by the fluorescence at 490 nm multiplied by 10,000. The results are normalized to percent inhibition based on control samples: DMSO (0% inhibition) and control compound at a concentration that inhibits completely (100% inhibition). The normalized TR-FRET results are plotted against compound concentration, and the data are fit to a 4-parameter Hill equation to determine the IC50 values.
(In general: Time-resolved FRET reads energy transfer from a long-lived donor to a nearby acceptor.)

Sequence of KRAS WT (P01116-2 other isoform, or with tags, fused parts or gaps): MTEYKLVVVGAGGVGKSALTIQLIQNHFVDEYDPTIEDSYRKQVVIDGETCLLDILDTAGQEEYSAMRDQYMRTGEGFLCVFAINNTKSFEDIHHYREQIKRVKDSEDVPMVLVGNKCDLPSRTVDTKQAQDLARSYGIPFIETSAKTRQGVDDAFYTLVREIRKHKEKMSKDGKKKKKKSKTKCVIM

Consider `Cc1c(F)c(N)cc(-c2nc3c4c(nc(OC[C@H]5[C@H](C#N)CCN5C)nc4c2F)N2C[C@H]4CC[C@H](N4)[C@H]2[C@H](C)O3)c1C(F)(F)F` [Compound 161, (2R,3R)-2-((((5S,5aS,6S,9R)-2-(5-Amino-4° fluoro-3-methyl-2-(trifluoromethylo)henyl)-1-fluoro-5-methyl-5a,6,7,8,9,10-hexahydro-5H-4-oxa-3,10a,11,13,14-pentaaza-6,9-methanonaphtho[1,8-ab]heptalen-12-yl)oxy)methyl)-1-methylpyrrolidine-3-carbonitrile], for which the IC50 on KRAS G12D was 7.61 nM; at KRAS WT, 1330 nM.

Regarding `Cc1c(F)c(N)cc(-c2nc3c4c(nc(OCC5CN(CC(F)F)C5)nc4c2F)N2C[C@H]4CC[C@H](N4)[C@H]2[C@H](C)O3)c1C(F)(F)F` [Compound 128, 5-((5S,5aS,6S,9R)-12-((1-(2,2-Difluoroethyl)azetidin-3-yl)methoxy)-1-fluoro-5-methyl-5a,6,7,8,9,10-hexahydro-5H-4-oxa-3,10a,11,13,14-pentaaza-6,9-methanonaphtho[1,8-ab]heptalen-2-yl)-2-fluoro-3-methyl-4-(trifluoromethyl)aniline], the half-inhibitory concentration (IC50) came out at 0.48 nM at KRAS G12D and 156 nM on KRAS WT.

Consider `Cc1c(F)c(N)cc(-c2nc3c4c(nc(OC[C@@H]5CC[C@H]6C[C@H](C(=O)N(C)C)CCN56)nc4c2F)N2C[C@H]4CC[C@H](N4)[C@H]2[C@H](C)O3)c1C(F)(F)F` (single isomer, unassigned) [133 (isomer 4)], for which the IC50 on KRAS G12D worked out at 0.08 nM; at KRAS WT it was 2.3 nM.

Consider `Cc1nc(N)cc(-c2nc3c4c(nc(OC[C@@H]5CC[C@H]6COCCN65)nc4c2F)N2C[C@H]4CC[C@H](N4)[C@H]2[C@H](C)O3)c1C(F)(F)F` [Compound 112, 4-((5S,5aS,6S,9R)-1-fluoro-12-(((6S,8aS)-hexahydro-1H-pyrrolo[2,1-c][1,4]oxazin-6-yl)methoxy)-5-methyl-5a,6,7,8,9,10-hexahydro-5H-4-oxa-3,10a,11,13,14-pentaaza-6,9-methanonaphtho[1,8-ab]heptalen-2-yl)-6-methyl-5-(trifluoromethyl)pyridin-2-amine], for which the IC50 at KRAS G12D came out at 0.48 nM; on KRAS WT, 62.8 nM.

As for `Cc1c(F)c(N)cc(-c2nc3c4c(nc(OCC5(CN6CCO[C@H](C)C6)CC5)nc4c2F)N2C[C@H]4CC[C@H](N4)[C@H]2[C@H](C)O3)c1C(F)(F)F` [Compound 168, 2-Fluoro-5-((5S,5aS,6S,9R)-1-fluoro-5-methyl-12-((1-(((R)-2-methylmorpholino)methyl)cyclopropyl)methoxy)-5a,6,7,8,9,10-hexahydro-5H-4-oxa-3,10a,11,13,14-pentaaza-6,9-methanonaphtho[1,8-ab]heptalen-2-yl)-3-methyl-4-(trifluoromethyl)aniline], the IC50 at KRAS G12D was 0.12 nM; at KRAS WT, 1.68 nM.

`Cc1c(F)c(N)cc(-c2nc3c4c(nc(OCC5(CN6CCO[C@H](CF)C6)CC5)nc4c2F)N2C[C@H]4CC[C@H](N4)[C@H]2[C@H](C)O3)c1C(F)(F)F` [Compound 171, 2-Fluoro-5-((5S,5aS,6S,9R)-1-fluoro-12-((1-(((S)-2-(fluoromethyl)morpholino)methyl)cyclopropyl)methoxy)-5-methyl-5a,6,7,8,9,10-hexahydro-5H-4-oxa-3,10a,11,13,14-pentaaza-6,9-methanonaphtho[1,8-ab]heptalen-2-yl)-3-methyl-4-(trifluoromethyl)aniline]: the IC50 on KRAS G12D is 0.253 nM; on KRAS WT it was 13.7 nM.

Turning to `Cc1cc(N)cc(-c2nc3c4c(nc(OC[C@]56CCN5CC(F)(F)C6)nc4c2F)N2C[C@H]4CC[C@H](N4)[C@H]2[C@H](C)O3)c1C(F)(F)F` [Compound 60, 3-((5S,5aS,6S,9R)-12-(((R)-3,3-Difluoro-1-azabicyclo[3.2.0]heptan-5-yl)methoxy)-1-fluoro-5-methyl-5a,6,7,8,9,10-hexahydro-5H-4-oxa-3,10a,11,13,14-pentaaza-6,9-methanonaphtho[1,8-ab]heptalen-2-yl)-5-methyl-4-(trifluoromethyl)aniline], the IC50 at KRAS G12D is 0.18 nM; at KRAS WT, 4.55 nM.

As to `COc1cc2ccccc2c(-c2nc3c4c(nc(OC[C@]56CCN5CC(F)(F)C6)nc4c2F)N2C[C@H]4CC[C@H](N4)[C@H]2[C@H](C)O3)n1` [Compound 89, (5S,5aS,6S,9R)-12-(((R)-3,3-Difluoro-1-azabicyclo[3.2.0]heptan-5-yl)methoxy)-1-fluoro-2-(3-methoxyisoquinolin-1-yl)-5-methyl-5a,6,7,8,9,10-hexahydro-5H-4-oxa-3,10a,11,13,14-pentaaza-6,9-methanonaphtho[1,8-ab]heptalene], the values for the 50% inhibitory concentration (IC50) at KRAS G12D and on KRAS WT were 912 nM and 1650 nM, respectively.

For the compound `Cc1c(F)c(N)cc(-c2nc3c4c(nc(OCC5(CN6C[C@@H]7C[C@H]6CO7)CC5)nc4c2F)N2C[C@H]4CC[C@H](N4)[C@H]2[C@H](C)O3)c1C(F)(F)F` [Compound 169, 5-((5S,5aS,6S,9R)-12-((1-(((1S,4S)-2-Oxa-5-azabicyclo[2.2.1]heptan-5-yl)methyl)cyclopropyl)methoxy)-1-fluoro-5-methyl-5a,6,7,8,9,10-hexahydro-5H-4-oxa-3,10a,11,13,14-pentaaza-6,9-methanonaphtho[1,8-ab]heptalene-2-yl)-2-fluoro-3-methyl-4-(trifluoromethyl)aniline], the IC50 on KRAS G12D worked out at 0.1 nM; on KRAS WT, 2.31 nM.

For the compound `Cc1c(F)c(N)cc(-c2nc3c4c(nc(OC[C@]56COC[C@@H]5CCN6C)nc4c2F)N2C[C@H]4CC[C@H](N4)[C@H]2[C@H](C)O3)c1C(F)(F)F` (single isomer, unassigned) [134 (isomer 2)], the IC50 on KRAS G12D was found to be 0.19 nM; at KRAS WT it was 38.1 nM.

For `Cc1cc(N)cc(-c2nc3c4c(nc(OC[C@@]56CCCN5C[C@H](F)C6)nc4c2F)N2C[C@H]4CC[C@H](N4)[C@H]2[C@H](C)O3)c1Cl` [Compound 74, 4-Chloro-3-((5S,5aS,6S,9R)-1-fluoro-12-(((2R,7aS)-2-fluorotetrahydro-1H-pyrrolizin-7a(5H)-yl)methoxy)-5-methyl-5a,6,7,8,9,10-hexahydro-5H-4-oxa-3,10a,11,13,14-pentaaza-6,9-methanonaphtho[1,8-ab]heptalen-2-yl)-5-methylaniline], the values for the half-inhibitory concentration (IC50) on KRAS G12D and on KRAS WT were 0.33 nM and 30.8 nM, respectively.

`Cc1c(F)c(N)cc(-c2nc3c4c(nc(OC[C@@H]5CO[C@H]6CC[N@]5C6)nc4c2F)N2C[C@H]4CC[C@H](N4)[C@H]2[C@H](C)O3)c1C(F)(F)F` [Compound 135, 5-((5S,5aS,6S,9R)-12-(((1R,2S,5S)-4-Oxa-1-azabicyclo[3.2.1]octan-2-yl)methoxy)-1-fluoro-5-methyl-5a,6,7,8,9,10-hexahydro-5H-4-oxa-3,10a,11,13,14-pentaaza-6,9-methanonaphtho[1,8-ab]heptalen-2-yl)-2-fluoro-3-methyl-4-(trifluoromethyl)aniline]: the IC50 worked out at 0.71 nM on KRAS G12D and 143 nM at KRAS WT.

For the compound `Cc1cc(N)c(F)c(-c2nc3c4c(nc(OC[C@@H]5CC[C@H]6COCCN65)nc4c2F)N2C[C@H]4CC[C@H](N4)[C@H]2[C@H](C)O3)c1C(F)(F)C(F)(F)F` [Compound 100, 2-Fluoro-3-((5S,5aS,6S,9R)-1-fluoro-12-(((6S,8aS)-hexahydro-1H-pyrrolo[2,1-c][1,4]oxazin-6-yl)methoxy)-5-methyl-5a,6,7,8,9,10-hexahydro-5H-4-oxa-3,10a,11,13,14-pentaaza-6,9-methanonaphtho[1,8-ab]heptalen-2-yl)-5-methyl-4-(perfluoroethyl)aniline], the IC50 was found to be 1.49 nM at KRAS G12D and 495 nM on KRAS WT.

`Cc1c(F)c(N)cc(-c2nc3c4c(nc(OC[C@@]5(CC(F)F)CCCN5C)nc4c2F)N2C[C@H]4CC[C@H](N4)[C@H]2[C@H](C)O3)c1C(F)(F)F` (single isomer, unassigned) [150 (isomer 1)]: the half-maximal inhibitory concentration (IC50) on KRAS G12D is 0.18 nM; on KRAS WT, 27.5 nM.

In the case of `Cc1cc2[nH]ncc2c(-c2nc3c4c(nc(OC[C@@]56CCCN5C[C@H](F)C6)nc4c2F)N2C[C@H]4CC[C@H](N4)[C@H]2[C@H](C)O3)c1Cl` [Compound 176, (5S,5aS,6S,9R)-2-(5-Chloro-6-methyl-1H-indazol-4-yl)-1-fluoro-12-(((2R,7aS)-2-fluorotetrahydro-1H-pyrrolizin-7a(5H)-yl)methoxy)-5-methyl-5a,6,7,8,9,10-hexahydro-5H-4-oxa-3,10a,11,13,14-pentaaza-6,9-methanonaphtho[1,8-ab]heptalene], the IC50 was 2.8 nM on KRAS G12D and 809 nM at KRAS WT.

As to `Cc1c(F)c(N)cc(-c2nc3c4c(nc(OCC56C[C@H](F)CN5C[C@@H](F)C6)nc4c2F)N2C[C@H]4CC[C@H](N4)[C@H]2[C@H](C)O3)c1C(F)(F)F` [Compound 139, 5-((5S,5aS,6S,9R)-12-(((2S,6S)-2,6-Difluorotetrahydro-1H-pyrrolizin-7a(5H)-yl)methoxy)-1-fluoro-5-methyl-5a,6,7,8,9,10-hexahydro-5H-4-oxa-3,10a,11,13,14-pentaaza-6,9-methanonaphtho[1,8-ab]heptalen-2-yl)-2-fluoro-3-methyl-4-(trifluoromethyl)aniline], the figures for the 50% inhibitory concentration (IC50) at KRAS G12D and at KRAS WT were 2.41 nM and 780 nM, respectively.
